Here are results for 2 molecules from US7407745B1, “Method for screening anticancer agent” (Chugai Seiyaku Kabushiki Kaisha, priority 1999, dated 2008).

For test [1], the system named is Sp1 binding sequence in the p21/WAF1/Cip1 promoter. Kind of test: Gel shift assay (EMSA) with nuclear extracts of TSA-treated and untreated MG63 cells. The arrangement: species or system human. To be noted: 500 ng/ml TSA for 24 hours vs untreated. The procedure:
First, MG63 cells were incubated at 37° C. in a humidified atmosphere of 5% CO2 using DMEM medium (GIBCO BRL) containing 10% fetal calf serum (GIBCO BRL). Nuclear extracts of these cells were prepared from both TSA-treated and untreated cells, according to the method of Dignam et al. (Dignam, J. D. et al., (1983) Nucleic Acids Res. 11:1475-1489). First, cells cultured in a dish (100 mm) were incubated for 24 hours with 500 ng/ml TSA (Wako). This was then washed twice with cold PBS containing 0.5 mM 4-(2-aminoethyl)benzenesulfonyl fluoride HCl (p-ABSF) (Wako), the cells were scraped from the plate, and suspended in 10 mM Hepes/KOH buffer (pH7.9) containing 10 mM KCl, 1.5 mM MgCl2, 0.5 mM DTT, 5 mM NaF, 5 mM NaVO4, and 0.5 mM p-ABSF. After placing on ice for 10 minutes, the cells were disrupted using a Dounce homogenizer. […]
Next, based on the TSA-dependent promoter sequence (5′-CGGGTCCCGCCTCCTT-3′/SEQ ID NO: 1) located −87 to −72 bp from the transcription start site of the p21/WAF1/Cip1 gene, oligonucleotides (5′-[…]-3′/SEQ ID NO: 2, and 5′-[…]-3′/SEQ ID NO: 3) were synthesized. […] The reaction solution was resolved by electrophoresis on a 6% acrylamide gel and the proteins that bind to the p21/WAF1/Cip1 probe were detected using BAS 2000 (Fujix).
On the technique in general: Mobility shift assays separate free from complexed probe on a gel.

For another test, the system named is GAL4-Sp3. The experiment in a line: Reporter assay using the GAL4 binding sequence (pG5-luc), GAL4-Sp3, MG63 cells. The class given is cell-based, human. Conditions: GAL4-Sp3 (full-length Sp3, amino acids 1-653), TSA 500 ng/ml, 24 hours. An excerpt: This yielded pM-Sp1, pM-Sp3, pM-DNSp1, and pM-DNSp3, respectively. Each of the Sp1 and Sp3 genes was amplified by PCR. Specifically, pM-Sp1 production employed Sp1-S (5′-acaggtgagcttga-3′/SEQ ID NO: 4) and Sp1-AS (5′-tcagaagccattgcc-3′/SEQ ID NO: 5) as primers and used pPacSp1 as template for amplification (Kadonaga, J. T. et al., (1987) Cell 51:1079-1090). pM-DNSp1 production employed DNSp1-S (5′-[…]-3′/SEQ ID NO: 6) and DNSp1-AS (5′-gaagcatgcacctgc-3′/SEQ ID NO: 7) as primers and used pM-Sp1 as template for amplification (Kadonaga, J. T. et al., (1987) Cell 51: 1079-1090). pM-Sp3 production employed Sp3-18F (5′-[…]-3′/SEQ ID NO: 8) and Sp3-2R (5′-[…]-3′/SEQ ID NO: 9) as primers and used Marathon-Ready cDNA (Human Fetal Liver) (Clontech, Cat. #7403-1) as template for amplification (Chris, K. et al., (1992) J. Biol. Chem. 12: 4251-4261). pM-DNSp3 production employed Sp3-11F (5′-[…]-3′/SEQ ID NO: 10) and Sp3-2R (SEQ ID NO: 9) as primers and used pM-Sp3 as template for amplification (Chris, K. et al., (1992) J. Biol. Chem. 12: 4251-4261). All PCRs were carried out by performing 30 cycles of 94° C. for 1 minute, 55° C. for 30 seconds, and 72° C. for 30 seconds. The resulting PCR amplified product was inserted into a pM vector and the nucleotide sequence was confirmed using a DNA sequencer, ABI PRISM 355 (Applied Bio System). […]
Background: Reporter assays use an easily measured gene product as a stand-in for the process of interest.

In test [2] the test system is GAL4-Sp3 deletion mutant proteins. Kind of test: Reporter assay using the GAL4 binding sequence (pG5-luc), GAL4-Sp3 deletion mutants, MG63 cells. The class given is cell-based, human. Conditions: TSA 500 ng/ml, 24 hours. An excerpt:
This yielded pM-Sp1, pM-Sp3, pM-DNSp1, and pM-DNSp3, respectively. Each of the Sp1 and Sp3 genes was amplified by PCR. Specifically, pM-Sp1 production employed Sp1-S (5′-acaggtgagcttga-3′/SEQ ID NO: 4) and Sp1-AS (5′-tcagaagccattgcc-3′/SEQ ID NO: 5) as primers and used pPacSp1 as template for amplification (Kadonaga, J. T. et al., (1987) Cell 51:1079-1090). pM-DNSp1 production employed DNSp1-S (5′-[…]-3′/SEQ ID NO: 6) and DNSp1-AS (5′-gaagcatgcacctgc-3′/SEQ ID NO: 7) as primers and used pM-Sp1 as template for amplification (Kadonaga, J. T. et al., (1987) Cell 51: 1079-1090). pM-Sp3 production employed Sp3-18F (5′-[…]-3′/SEQ ID NO: 8) and Sp3-2R (5′-[…]-3′/SEQ ID NO: 9) as primers and used Marathon-Ready cDNA (Human Fetal Liver) (Clontech, Cat. #7403-1) as template for amplification (Chris, K. et al., (1992) J. Biol. Chem. 12: 4251-4261). pM-DNSp3 production employed Sp3-11F (5′-[…]-3′/SEQ ID NO: 10) and Sp3-2R (SEQ ID NO: 9) as primers and used pM-Sp3 as template for amplification (Chris, K. et al., (1992) J. Biol. Chem. 12: 4251-4261). All PCRs were carried out by performing 30 cycles of 94° C. for 1 minute, 55° C. for 30 seconds, and 72° C. for 30 seconds. The resulting PCR amplified product was inserted into a pM vector and the nucleotide sequence was confirmed using a DNA sequencer, ABI PRISM 355 (Applied Bio System). As a control for the transfection test, pM that only expresses the GAL4 DNA binding domain was employed. The reporter plasmid (pG5-luc) used to indicate the dependence of transcriptional activation, on GAL4 was pGL3-Basic Vector (Promega), which carried the 5×GAL4 binding sequence, E1B minimum promoter, and TATA sequence, upstream of the luciferase gene.
The expression vector described above encoding various Sp1 or Sp3 GAL4 fusion proteins and the abovementioned vector carrying a luciferase reporter gene downstream of the consensus 5×GAL4 binding sequence were cotransfected into MG63 cells using SuperFect following the method by QIAGEN. Namely, cells were seeded at a density of 0.8×10^5 cells/well in a 12-well plate. After 24 hours, a pre-mixed reaction solution containing 0.5 μg of reporter plasmid, 2.5 μg of expression vector, and SuperFect were added to the MG63 cells and the mixture was reacted for 2 hours. Subsequently, the cells were cultured for 24 hours under normal culture conditions, cultured for another 24 hours with or without (control) 500 ng/ml of TSA, and then, the cells were lysed. Using luciferase substrate (Promega), luciferase activity of the cell lysates was measured using LB-96P (Berthold). The measured values were normalized and were expressed as activity per amount of protein. Transcriptional induction due to TSA treatment was calculated as a ratio with respect to the TSA-untreated control value (activation amplification by TSA).
Next, reporter assay was performed using various Sp3 deletion mutants fused to the GAL4 DNA binding domain in order to identify the TSA responsive region of Sp3. First, pM-Sp3 (1-398), pM-Sp3 (81-398), pM-Sp3 (161-398), pM-Sp3 (241-398), pM-Sp3 (1-80), pM-Sp3 (1-160), pM-Sp3 (1-240), and pM-Sp3 (1-320) were prepared. They respectively carry regions corresponding to the indicated amino acid numbers. […]
As a control for the transfection test, pM expressing only the GAL4 DNA binding domain was used. […] Transfection using these genes followed the same method as described above, and the occurrence of transcriptional induction due to TSA treatment in these mutants was monitored.

Another test concerns p21/WAF1/Cip1 promoter. The experiment in a line: Luciferase reporter assay of p21/WAF1/Cip1 promoter (pWWP, pWPdel-BstXI) with dominant negative Sp3, MG63 cells. The class given is cell-based, human. Conditions: pWWP and pWPdel-BstXI reporters, forced expression of DNSp3 (pCMV-DNSp3), TSA 500 ng/ml.
Test [3] concerns consensus Sp1 binding sequence. Kind of test: Luciferase reporter assay of 3xSp1 binding sequence (Sp1-luc, mtSp1-luc) with dominant negative Sp3, MG63 cells. The class given is cell-based, human.
Test [4] has as its system all-trans-retinoic acid resistant acute promyelocytic leukemia. Conditions: in combination with all-trans retinoic acid; cited from earlier work.

`CC(/C=C/C(=O)NO)=C\[C@@H](C)C(=O)c1ccc(N(C)C)cc1` [TSA, Trichostatin A]: the “amount of DNA bound by Sp1 and Sp3” value in test [1] is “a difference in the amount of DNA bound by Sp1 and Sp3 due to the presence or absence of TSA treatment could not be observed”. The “transcriptional induction of the luciferase gene by TSA (ratio to TSA-untreated control)” value with GAL4-Sp3 was “strong transcriptional induction”. Besides, the “TSA dependent transcriptional induction” value was “no longer showed TSA dependent transcriptional induction” in test [2] (GAL4-DNSp3 (amino acids 399-653)); “induction due to TSA treatment disappeared” in test [2] (GAL4-Sp3 (1-80)); “stronger than with GAL4-Sp3” in test [2] (GAL4-Sp3 (1-398)); “almost no activity” in test [2] (GAL4-Sp3 (81-160) alone); “induction due to TSA treatment disappeared” in test [2] (GAL4-Sp3 (241-398)). Besides, in the test with p21/WAF1/Cip1 promoter, the “transcriptional induction of p21/WAF1/Cip1 by TSA” value is reported as “remarkably repressed by DNSp3”. Also, the “TSA dependent transcriptional induction driven by the consensus Sp1 binding sequence” value in test [3] (Sp1-luc reporter, forced expression of DNSp3, TSA 500 ng/ml) is recorded as “marked repression”. Further, the “transcriptional induction by TSA” value in test [3] (mtSp1-luc reporter (mutated Sp1 binding sequence), TSA 500 ng/ml) was “did not take place”.

In the case of sodium phenylbutyrate, the remission of leukemia entry in test [4] is “complete remission”.
